Source: patent publication US20240159780A1, “PREDICTION OF AMOUNT OF IN VIVO DOPAMINE ETC., AND APPLICATION THEREOF” (Sumitomo Pharma Co., Ltd., priority 2021, published 2024)
Entries after “also recorded” stand apart in the source; their conditions may differ.

Legend:
[1] = system: MPTP-induced PD-LID model rhesus monkeys; experiment: Number of blinks (eye tracking) after L-DOPA in MPTP-induced PD-LID model rhesus monkeys; type: in vivo, rhesus monkey
[2] = system: MPTP-induced PD-LID model rhesus monkeys; experiment: Dyskinesia score and generalized dyskinesia score in MPTP-induced PD-LID model rhesus monkeys; type: in vivo, rhesus monkey
PD-LID model rats = experiment: Striatal dopamine release by microdialysis in PD-LID model rats; type: in vivo, rat; settings: levodopa i.p.
Protocol: As a representative experimental model for Parkinson's disease, a rat striatal dopaminergic neuron destruction model is known in which 6-hydroxydopamine (hereinafter sometimes referred to as “6-OHDA”) is locally administered to one side of the brain (6-OHDA unilateral treated rat (6-OHDA injured rat)). Male Wistar rats (12 weeks old, Japan SLC, Inc.) were used to prepare model animals. Desipramine hydrochloride (25 mg/kg; Wako Pure Chemical Industries, Ltd.) was intraperitoneally administered, and 30 minutes after the administration, inhalation anesthesia with isoflurane was performed using a general anesthesia machine for experimental animals. Under isoflurane anesthesia, the rat was fixed in a stereotaxic apparatus, the skin of the head was incised with a surgical scalpel to expose the cranial bone, and the coordinate of bregma, which is the starting point (AP: 0, ML: 0, DV: 0), was confirmed, and the coordinate of the right medial forebrain bundle (AP: −4.4 mm, ML: 1.5 mm, DV: 7.8 mm from bregma) was measured. […]
In order to measure striatal dopamine release, guide cannula implantation into the striatum of PD-LID model rats and chromatography were performed by a method described in a reference (Pharmacol Res Perspect. 2015 June; 3(3): e00142.). […] Using an HPLC-ECD system (EiCOM Co., Ltd.), the amount of dopamine in the collected dialysate was measured. […]

[3] = L-DOPA 22 mg/kg with Benserazide, oral

SMILES | total number of blinks compared to vehicle ([1]; 30 to 120 minutes after administration (60 to 150 minutes after start of measurement), one individual) | time after administration from which the number of blinks increased ([1]; L-DOPA 22 mg/kg with Benserazide 1/4 weight, oral, blinks tallied every 3 minutes) | time of peak of number of blinks with an intermediate duration (0.16≤T<0.18) ([1]; after oral L-DOPA 22 mg/kg, rapid decrease, then gradual increase) | time after administration at which the dyskinesia score increased [2, 3] | time after administration from which the score of generalized dyskinesia declined [2, 3] | time after administration from which the score of generalized dyskinesia increased [2, 3] [min] | time after administration of the peak dyskinesia score [2, 3] [min] | time after administration of the peak score of generalized dyskinesia [2, 3] | decay of the dyskinesia score ([2]; L-DOPA 22 mg/kg with Benserazide, oral, measured for 180 minutes) | rapid changes and temporal decreases in the dopamine amount in the synaptic cleft in the striatum (PD-LID model rats) | dyskinesia score ([2]; tandospirone ointment transdermal 19 hours prior to testing, with L-DOPA, vs non-tandospirone administration)
N[C@@H](Cc1ccc(O)c(O)c1)C(=O)O [L-DOPA, (S)-2-amino-3-(3,4-dihydroxyphenyl) propanoic acid] | tended to increase; also recorded: clear tendency to increase | about 30 minutes | around 30 minutes | about 20 minutes | around 150 minutes | 60 | 60 | around 90 minutes | did not decay until 180 minutes |  | 
O=C1[C@@H]2[C@H]3CC[C@H](C3)[C@@H]2C(=O)N1CCCCN1CCN(c2ncccn2)CC1 [tandospirone] |  |  |  |  |  |  |  |  |  | suppresses | decrease
